In patent publication US20240199571A1, “THIOPHENE COMPOUND AND APPLICATION THEREOF” (MEDSHINE DISCOVERY INC., priority 2021, published 2024):
Counter-ions that a name gives are not always drawn.

Key:
human LSD1 = human LSD1 (Homo sapiens (Human), UniProt O60341); assay: Experiment 1B: in vitro LSD1 enzyme activity, enzyme-coupled fluorescence (HRP/Amplex Red), H3(1-21)K4me2 peptide 10 μM (Reaction Biology); type: biochemical; settings: histone H3(1-21)K4me2 peptide 10 μM
Experimental: Experiment 1B: Evaluation of Enzyme Activity
Testing unit: Reaction Biology Corp., USA.
The purpose of the assay was to test the in vitro inhibitory activity of the compounds against LSD1. The enzyme used in the assay was human LSD1, and the standard substrate was histone H3(1-21)K4me2 peptide (10 μM). The activity of the compounds was determined by the enzyme-coupling fluorescent method by the combined detection of H2O2 generated after the reaction of LSD1 by horseradish peroxidase (HRP) and the fluorescent reagent Amplex Red. Starting from 10 μM, the compounds were 3-fold diluted to detect the IC50 values of the compounds at 10 concentrations. The enzyme and substrate were incubated for 30 minutes before the compound was added to the substrate to start the reaction. Fluorescence detector: EnVision, excitation wavelength: Ex/Em=535/590 nM.

NCI-H1417 cells = assay: Experiment 2: inhibition of NCI-H1417 cell proliferation (CellTiter-Glo, 10 days); type: cell-based; settings: Homo sapiens, 240 h, 10 days incubation
Experimental: Experiment 2: Evaluation of Inhibitory Activity on NCI-H1417 Cell Proliferation
Experimental purpose: To test the inhibitory activity of test compounds on NCI-H1417 cell proliferation.
Experimental materials: RPMI 1640 medium, fetal bovine serum, Promega CellTiter-Glo reagent. The NCI-H1417 cell line was purchased from ATCC. Envision multilabel plate reader (PerkinElmer).
Experimental method: The compounds were dissolved to 10 mM and 5-fold diluted with DMSO in the compound plates, starting with a concentration of 2 mM. 3-fold serial dilution was performed with Bravo to 10 concentrations. Then 250 nL of the compound solution was transferred to the upper and lower double duplicate wells of a blank 384 cell plate with Echo. To each well containing the transferred 250 nL of DMSO/compound was added a cell suspension of 1000 cells/50 μL per well, and the compound was diluted 200-fold, i.e., resulting in an initial working concentration of 10 μM. The cell plate was incubated in a carbon dioxide incubator for 10 days. To the cell plate was added 25 μL of Promega CellTiter-Glo reagent per well and the mixture was shaken for 10 minutes at room temperature to stabilize the luminescence signal. Readings were performed on a PerkinElmer Envision multilabel plate reader.
Data analysis: Raw data were converted into inhibition rate using the formula: (Max−Ratio)/(Max−Min)*100%. The IC50 values could then be derived from four-parameter curve fitting. (derived from 205 mode in XLFIT5, iDBS)
The compounds were tested for inhibitory activity of compounds on NCI-H1417 cell proliferation, and the results are shown in Table 3.

[1] = target: hERG potassium ion channels (Homo sapiens (Human), UniProt Q12809); assay: Experiment 4: hERG potassium ion channel inhibition, automated patch clamp (Qpatch), CHO-hERG cells; type: cell-based; settings: highest test concentration 40 μM
Experimental: Experiment 4: hERG Potassium Ion Channel Inhibition Assay
Experimental purpose: To test the effects of the test examples on hERG potassium ion channels using an automated patch clamp method.
4.1.1 CHO-hERG cells were cultured in a 175 cm^2 culture flask. When the cell density grew from 60% to 80%, the culture medium was removed. The cells were washed once with 7 mL of PBS (Phosphate Buffered Saline), and then 3 mL of Detachin cell dissociation reagent was added thereto for digestion.
4.1.2 After the digestion was completed, 7 mL of culture medium was added thereto for neutralization, then the mixture was centrifuged, the supernatant was aspirated, and then 5 mL of culture medium was added thereto for resuspension to ensure a cell density of 2×10^6/mL to 5×10^6/ML.
The single-cell high-resistance sealing and whole-cell modeling formation processes were all automatically completed by the Qpatch instrument of the Shanghai Institute of Materia Medica, Chinese Academy of Sciences. After obtaining the whole-cell recording modeling, the cells were clamped at −80 mV, and before a 5-second +40 mV depolarizing stimulus was given, a 50-millisecond −50 mV prepulse was first given, then the voltage was repolarized to −50 mV and holden for 5 seconds, and finally returned to −80 mV. This voltage stimulus was applied every 15 seconds, recorded for 2 minutes, and then the extracellular fluid was recorded for 5 minutes, and then the administration process was initiated, with compound concentrations starting at the lowest test concentration. The voltage stimulus was given for 2.5 minutes for each test concentration, and after all concentrations had been continuously given, 3 μM the positive control compound, Cisapride, was given. At least 3 cells were tested per concentration (n≥3).
4.4.1 The compound stock solution was diluted with DMSO, and 20 μL of DMSO solution was added with 10 μL of the compound stock solution, and serially diluted 3-fold to 6 DMSO concentrations.
4.4.2 4 μL of 6 DMSO concentrations of compounds were taken respectively and added to 396 μL of extracellular fluid, and the mixture was diluted 100-fold to 6 intermediate concentrations, then 80 μL of 6 intermediate concentrations of compounds was taken and added to 320 μL of extracellular fluid, and the mixture was diluted 5-fold to the final test concentration.
4.4.3 The highest test concentration was 40 μM, and the concentrations were respectively 40, 13.3, 4.4, 1.48, 0.494, and 0.165 μM for a total of six concentrations.
4.4.5 The preparation of the compound was completed by the Bravo instrument throughout the dilution process.
Experimental data were analyzed by GraphPad Prism 5.0 software.

[2] = Experiment 3: pharmacokinetic evaluation in CD-1 mice (IV and oral); type: in vivo; settings: mouse, plasma, male CD-1 mice
Experimental: Experiment 3: Pharmacokinetic Evaluation of Compounds
Experimental purpose: To test the pharmacokinetics of compounds in CD-1 mice in vivo
CD-1 mice (male/female, 7 to 9 weeks old, Shanghai SLAC)
The pharmacokinetic characteristics of the compounds in rodents after intravenous injection and oral administration were tested according to the standard protocol. In the experiment, the candidate compound was formulated into clear solutions, and a single intravenous injection and oral administration were given to mice. The vehicle for intravenous injection and oral administration was a mixed vehicle composed of 10% dimethyl sulfoxide and 90% hydroxypropyl β-cyclodextrin with a content of 10%. In this project, four male/female CD-1 mice were used. Two mice were injected intravenously at a dose of 1 mg/kg, and plasma samples were collected at 0.083, 0.25, 0.5, 1, 2, 4, 8, and 24 hours after administration; the other two were administered orally by gavage at a dose of 2 mg/kg, and plasma samples were collected at 0.25, 0.5, 1, 2, 4, 8, and 24 hours after administration. The samples were centrifuged at 3200 g for 10 minutes at 4° C., and plasma samples were obtained by separating the supernatant. A methanol solution containing internal standard with 20 times the volume of the sample was added thereto to precipitate the protein, and the mixture was centrifuged at 12000 g for 15 minutes at 4° C. 50 μL of the supernatant was taken and transferred to a 96-well plate and centrifuged again. The supernatant was taken for sampling. The plasma concentration was quantitatively analyzed using LC-MS/MS analysis method, and pharmacokinetic parameters, such as peak concentration (Cmax), clearance rate (CL), half-life (T1/2), volume of distribution at steady state (Vdss), area under drug-time curve (AUC0-last), bioavailability (F).

Sequence of hERG potassium ion channels (Q12809 whole entry): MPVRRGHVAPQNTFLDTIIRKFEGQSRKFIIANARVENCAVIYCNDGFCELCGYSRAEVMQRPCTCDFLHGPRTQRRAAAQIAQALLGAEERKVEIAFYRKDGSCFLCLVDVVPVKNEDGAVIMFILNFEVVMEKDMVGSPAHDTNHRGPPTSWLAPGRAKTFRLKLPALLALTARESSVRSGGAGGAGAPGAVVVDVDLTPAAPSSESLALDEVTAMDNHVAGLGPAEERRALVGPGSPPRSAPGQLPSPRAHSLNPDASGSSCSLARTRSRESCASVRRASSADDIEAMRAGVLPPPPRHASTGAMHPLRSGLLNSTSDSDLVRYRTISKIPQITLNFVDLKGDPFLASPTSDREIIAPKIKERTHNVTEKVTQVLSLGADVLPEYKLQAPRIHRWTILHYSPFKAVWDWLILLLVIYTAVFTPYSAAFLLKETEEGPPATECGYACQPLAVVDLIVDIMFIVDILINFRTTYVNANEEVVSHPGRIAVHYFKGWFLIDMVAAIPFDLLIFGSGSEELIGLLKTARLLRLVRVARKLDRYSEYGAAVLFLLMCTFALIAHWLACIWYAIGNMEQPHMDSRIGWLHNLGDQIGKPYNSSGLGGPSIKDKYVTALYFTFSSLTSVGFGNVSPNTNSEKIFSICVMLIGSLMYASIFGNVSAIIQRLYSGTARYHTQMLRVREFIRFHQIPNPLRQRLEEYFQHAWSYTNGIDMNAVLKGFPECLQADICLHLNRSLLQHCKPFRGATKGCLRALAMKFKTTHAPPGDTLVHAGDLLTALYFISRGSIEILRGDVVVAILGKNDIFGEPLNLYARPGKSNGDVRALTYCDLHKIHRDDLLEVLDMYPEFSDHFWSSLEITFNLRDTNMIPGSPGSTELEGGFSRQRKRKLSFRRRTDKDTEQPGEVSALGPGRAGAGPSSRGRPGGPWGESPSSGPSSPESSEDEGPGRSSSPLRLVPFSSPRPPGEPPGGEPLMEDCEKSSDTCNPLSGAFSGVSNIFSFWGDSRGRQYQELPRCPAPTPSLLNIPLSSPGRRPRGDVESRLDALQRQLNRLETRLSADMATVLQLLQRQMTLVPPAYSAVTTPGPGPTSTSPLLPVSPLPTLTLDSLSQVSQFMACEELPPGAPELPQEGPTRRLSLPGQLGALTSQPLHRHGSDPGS

Compound | IC50 (human LSD1) [µM] | IC50 (NCI-H1417 cells) [µM] | IC50 [1] [µM] | other results
CC(C)(O)CN1Cc2cc(-c3sc(C(=O)N4CCC[C@@H](N)C4)cc3-c3ccc(C#N)c(F)c3)ccc2C1=O [Compound 59] | 0.0431 | 0.0132 | > 40 | –
N#Cc1ccc(-c2cc(C(=O)N3CCC[C@@H](N)C3)sc2-c2ccc3nn(C4COC4)cc3c2)cc1F [Compound 70] | – | 0.00988 | 18.7 | –
N#Cc1ccc(-c2cc(C(=O)N3CCC[C@@H](N)C3)sc2-c2ccc3oncc3c2)cc1F [Compound 77] | – | – | > 40 | –
CC1(O)CN(C(=O)c2ccc(-c3sc(C(=O)N4CCC[C@@H](N)C4)cc3-c3ccc(C#N)c(F)c3)cc2)C1 [Compound 81] | – | – | > 40 | –
CC(C)(O)Cn1nnc2cc(-c3sc(C(=O)N4C5CCC4C(N)C5)cc3-c3ccc(C#N)c(F)c3)ccc21 (centres unmarked) [Hydrochloride of compound 16] | 0.00751 | 0.00017 | > 40 | –
N#Cc1ccc(-c2cc(C(=O)N3CCC[C@@H](N)C3)sc2-c2ccc(OCC(=O)O)c(F)c2)cc1F [Hydrochloride of compound 30] | 0.122 | – | > 40 | –
Cn1cc(-c2sc(C(=O)N3CCC[C@@H](N)C3)cc2-c2ccc(C#N)c(F)c2)ccc1=O [Hydrochloride of compound 32] | – | – | > 40 | –
N#Cc1ccc(-c2cc(C(=O)N3CCC[C@@H](N)C3)sc2-c2cnc(N)nc2)cc1F [Hydrochloride of compound 45] | – | – | 32.6 | –
N#Cc1ccc(-c2cc(C(=O)N3CCC[C@@H](N)C3)sc2-c2ccc3c(c2)CNC3=O)cc1F [Hydrochloride of compound 46] | 0.0813 | 0.0194 | > 40 | –
N#Cc1ccc(-c2cc(C(=O)N3CCC[C@@H](N)C3)sc2-c2ccc(OCC(O)CO)c(F)c2)cc1F (some centres unmarked) [Hydrochloride of compound 54] | 0.0499 | 0.00511 | > 40 | –
Cn1cc2cc(-c3sc(C(=O)N4CCC[C@@H](N)C4)cc3-c3ccc(C#N)c(F)c3)cnc2n1 [Hydrochloride of compound 56] | 0.109 | 0.0568 | > 40 | –
N#Cc1ccc(-c2cc(C(=O)N3CCC[C@@H](N)C3)sc2-c2ccc3c(cnn3CC(O)CO)c2)cc1F (some centres unmarked) [Hydrochloride of compound 62] | 0.0301 | 0.0112 | > 40 | –
N#Cc1ccc(-c2cc(C(=O)N3CCC[C@@H](N)C3)sc2-c2ccc3nn(C4CC(O)C4)cc3c2)cc1F (some centres unmarked) [Hydrochloride of compound 73] | 0.0118 | 0.0145 | > 40 | –
N#Cc1ccc(-c2cc(C(=O)N3CCC[C@@H](N)C3)sc2-c2ccc3c(c2)nnn3CC2(O)CCC2)cc1F [Hydrochloride of compound 82] | 0.00301 | 0.00173 | 14.9 | –
CC1(O)CC(n2cc3cc(-c4sc(C(=O)N5CCC[C@@H](N)C5)cc4-c4ccc(C#N)c(F)c4)ccc3n2)C1 (some centres unmarked) [Hydrochloride of compound 86] | 0.016 | 0.0103 | 21 | –
N#Cc1ccc(-c2cc(C(=O)N3CCC[C@@H](N)C3)sc2-c2ccc3nn([C@H]4COCC[C@@H]4O)cc3c2)cc1F [Hydrochloride of compound 88] | 0.0876 | 0.0394 | 21.9 | –
N#Cc1ccc(-c2cc(C(=O)N3CCC[C@@H](N)C3)sc2-c2ccc3nn(CC4(O)CC4)cc3c2)cc1F [Hydrochloride of compound 89] | 0.0152 | 0.00161 | 22.7 | –
N#Cc1ccc(-c2cc(C(=O)N3CCC[C@@H](N)C3)sc2-c2ccc3c(c2)nnn3[C@H]2COCC[C@@H]2O)cc1F [Hydrochloride of compound 90] | 0.0373 | 0.0376 | > 40 | –
CC(C)(O)Cn1nnc2cc(-c3sc(C(=O)N4CCC[C@@H](N)C4)cc3-c3ccc(C#N)c(F)c3)c(F)c(F)c21 [Hydrochloride of compound 91] | 0.013 | 0.00083 | > 40 | –
N#Cc1ccc(-c2cc(C(=O)N3CCC[C@@H](N)C3)sc2-c2cc3cn([C@H]4COCC[C@@H]4O)nc3cc2F)cc1F [Hydrochloride of compound 94] | 0.0984 | 0.0328 | > 40 | –
CC(C)(CO)n1nnc2cc(-c3sc(C(=O)N4CCC[C@@H](N)C4)cc3-c3ccc(C#N)c(F)c3)c(F)c(F)c21 [Hydrochloride of compound 99] | 0.0174 | 0.00426 | 27 | clearance ([2]; IV 1 mg/kg, read-out: Clearance rate CL): 42 mL/min/kg; half-life ([2]; IV 1 mg/kg, read-out: Half life T1/2 (IV, h) (converted)): 2.48 h; Vd ([2]; IV 1 mg/kg, read-out: Volume of distribution at steady state Vdss): 7.23 L/kg; bioavailability ([2]; PO 2 mg/kg vs IV 1 mg/kg, read-out: Bioavailability F (%)): 47.7%; AUC(0-t) ([2]; PO 2 mg/kg, read-out: Area under drug-time curve AUC0-last PO): 0.625 µM·h; Cmax ([2]; single dose, oral 2 mg/kg, read-out: Peak concentration Cmax): 145 nM
CC(C)(O)Cn1nnc2cc(-c3sc(C(=O)N4CCCNCC4)cc3-c3ccc(C#N)c(F)c3)c(F)c(F)c21 [Hydrochloride of compound 111] | 0.0176 | 0.00212 | 21.5 | –
